Results published in patent US10292997B2, “Compositions and methods for stimulating wound healing” (priority 2011, dated 2019).

Test system: full thickness skin wounds
Test: Wound closure rate of excised full thickness skin wounds treated with gel formulations
Assay type: in vivo, Hartley-derived albino guinea pigs

“Insulin: Insulin alone as control; non-steroidal anabolic hormone, vehicle not stated in the table” was tested, and the “Peak Closure Day” value (day of maximum closure rate) was 3.0 days, the “Closure % (day) 50%” value (day on which 50% wound closure is reached, gel about 1 cc/cm^2, dressing changed every 48 hours) was 5.0 days and the “% Closure at Peak Closure Day” value (wound closure reached on the peak closure day) was 30%.
